In ChEMBL document CHEMBL1134738, “Alpha-ketoester-based photobiological switches: synthesis, peptide chain extension and assay against alpha-chymotrypsin” (Bioorg Med Chem Lett, 2001):

What was measured:
Chymotrypsinogen A [1] = biological target: T1, Chymotrypsinogen A (Bos taurus, UniProt P00766); test: Inhibition constant for inhibition of alpha-chymotrypsin by the UV light
Chymotrypsinogen A [2] = biological target: T1, Chymotrypsinogen A; test: Inhibition constant for inhibition of alpha-chymotrypsin by the ambient light

## COC(=O)C(=O)[C@H](Cc1ccccc1)NC(=O)c1ccc(/N=N/c2ccccc2)cc1
Chymotrypsinogen A [1]
  Ki: 130 nM
Chymotrypsinogen A [2]
  Ki: 240 nM

## COC(=O)C(=O)[C@H](Cc1ccccc1)NC(=O)OCc1ccc(/N=N/c2ccccc2)cc1
Chymotrypsinogen A [1]
  Ki: 290 nM
Chymotrypsinogen A [2]
  Ki: 770 nM
